The supplement of paper PMC10307832

Key:
Experiment in all cases: relative viability (nuclei count vs DMSO), 5 days (fraction); higher = more cells survive
NCI-H522 = tested on: NCI-H522
In short: (§1)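 A single step with final 0.05% Triton X-100, 1% formaldehyde and 1 ug/ml Hoechst fixed the cells and stained nuclei 5 days after treatment. Lung cancer cell lines in 1536-well plates had been treated by pin tool the day after seeding with one drug alone or a fixed anchor-drug dose plus five library-drug doses (not always all listed) in √10 steps, and nuclei were counted on 4× images. Relative viability is the ratio of nuclei in treated wells to nuclei in vehicle wells, taken as the median of duplicate plates.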

NCI-H1648 = tested on: NCI-H1648
In short: as §1

NCI-H2342 = tested on: NCI-H2342
In short: as §1

IA-LM = tested on: IA-LM
In short: as §1

SW 900 = tested on: SW 900
In short: as §1

NCI-H1299 = tested on: NCI-H1299
In short: as §1

Calu-6 = tested on: Calu-6
In short: as §1

NCI-H1703 = tested on: NCI-H1703
In short: as §1

EBC-1 = tested on: EBC-1
In short: as §1

A549 = tested on: A549
In short: as §1

For `O=C(O)CCCCC(CCSCc1ccccc1)SCc1ccccc1` (centres undefined) [CPI-613] + O=C(CCCCCCC(=O)Nc1ccccc1)NO [Vorinostat] (partner 1 µM), the relative viability (NCI-H522; first compound 5 µM) was 0.841, the relative viability (NCI-H522; first compound 15.81 µM) was 0.812 and the relative viability (NCI-H522; first compound 50 µM) was 0.833. For the same compound, the relative viability (NCI-H522; first compound 158.11 µM) was 0.741, the relative viability (NCI-H522; first compound 500 µM) was 0.244 and the relative viability (NCI-H1648; first compound 5 µM) was 0.527. The relative viability (NCI-H1648; first compound 15.81 µM) was 0.336, the relative viability (NCI-H1648; first compound 50 µM) was 0.422 and the relative viability (NCI-H1648; first compound 158.11 µM) was 0.142. It also gave a relative viability (NCI-H1648; first compound 500 µM) of 0.0754, a relative viability (NCI-H2342; first compound 5 µM) of 0.648 and a relative viability (NCI-H2342; first compound 15.81 µM) of 0.629. The relative viability (NCI-H2342; first compound 50 µM) was 0.721, the relative viability (NCI-H2342; first compound 158.11 µM) was 0.763 and the relative viability (NCI-H2342; first compound 500 µM) was 0.939. For the same compound, the relative viability (IA-LM; first compound 5 µM) was 0.876, the relative viability (IA-LM; first compound 15.81 µM) was 0.869 and the relative viability (IA-LM; first compound 50 µM) was 0.685. It also gave a relative viability (IA-LM; first compound 500 µM) of 0.937, a relative viability (SW 900; first compound 5 µM) of 0.512 and a relative viability (SW 900; first compound 50 µM) of 0.555. For the same compound, the relative viability (SW 900; first compound 158.11 µM) was 0.316 and the relative viability (SW 900; first compound 500 µM) was 0.0227.

`O=C(O)CCCCC(CCSCc1ccccc1)SCc1ccccc1` (centres undefined) [CPI-613] + O=C(c1cc(Cc2n[nH]c(=O)c3ccccc23)ccc1F)N1CCN(C(=O)C2CC2)CC1 [Olaparib] (partner 8 µM) showed a relative viability (NCI-H522; first compound 5 µM) of 0.589, a relative viability (NCI-H522; first compound 15.81 µM) of 0.533 and a relative viability (NCI-H522; first compound 50 µM) of 0.681. The relative viability (NCI-H522; first compound 158.11 µM) was 0.453, the relative viability (NCI-H522; first compound 500 µM) was 0.346 and the relative viability (NCI-H1299; first compound 5 µM) was 0.942. For the same compound, the relative viability (NCI-H1299; first compound 15.81 µM) was 1.01, the relative viability (NCI-H1299; first compound 50 µM) was 0.903 and the relative viability (NCI-H1299; first compound 158.11 µM) was 0.909. For the same compound, the relative viability (NCI-H1299; first compound 500 µM) was 0.968, the relative viability (Calu-6; first compound 5 µM) was 0.525 and the relative viability (Calu-6; first compound 50 µM) was 0.521. The relative viability (Calu-6; first compound 158.11 µM) was 0.433, the relative viability (Calu-6; first compound 500 µM) was 0.401 and the relative viability (NCI-H1648; first compound 5 µM) was 0.878. It also gave a relative viability (NCI-H1648; first compound 15.81 µM) of 0.976, a relative viability (NCI-H1648; first compound 50 µM) of 1.01 and a relative viability (NCI-H1648; first compound 158.11 µM) of 0.255. The relative viability (NCI-H1648; first compound 500 µM) was 0.0437, the relative viability (NCI-H2342; first compound 5 µM) was 0.472 and the relative viability (NCI-H2342; first compound 15.81 µM) was 0.432. For the same compound, the relative viability (NCI-H2342; first compound 50 µM) was 0.5, the relative viability (NCI-H2342; first compound 158.11 µM) was 0.461 and the relative viability (NCI-H2342; first compound 500 µM) was 0.412. The relative viability (NCI-H1703; first compound 5 µM) was 0.411, the relative viability (NCI-H1703; first compound 15.81 µM) was 0.453 and the relative viability (NCI-H1703; first compound 50 µM) was 0.499. It also gave a relative viability (NCI-H1703; first compound 158.11 µM) of 0.36, a relative viability (NCI-H1703; first compound 500 µM) of 0.403 and a relative viability (IA-LM; first compound 5 µM) of 0.881. For the same compound, the relative viability (IA-LM; first compound 15.81 µM) was 0.751, the relative viability (IA-LM; first compound 50 µM) was 0.866 and the relative viability (IA-LM; first compound 158.11 µM) was 0.537. It also gave a relative viability (IA-LM; first compound 500 µM) of 0.656, a relative viability (SW 900; first compound 5 µM) of 0.873 and a relative viability (SW 900; first compound 50 µM) of 0.823. For the same compound, the relative viability (SW 900; first compound 158.11 µM) was 0.33, the relative viability (SW 900; first compound 500 µM) was 0.0124 and the relative viability (EBC-1; first compound 5 µM) was 0.698. For the same compound, the relative viability (EBC-1; first compound 15.81 µM) was 0.33, the relative viability (EBC-1; first compound 50 µM) was 0.589 and the relative viability (EBC-1; first compound 158.11 µM) was 0.512. The relative viability (EBC-1; first compound 500 µM) was 0.49, the relative viability (A549; first compound 5 µM) was 0.301 and the relative viability (A549; first compound 15.81 µM) was 0.371. For the same compound, the relative viability (A549; first compound 50 µM) was 0.301, the relative viability (A549; first compound 158.11 µM) was 0.335 and the relative viability (A549; first compound 500 µM) was 0.327.

In the case of `O=c1[nH]c2ccccc2n1C1CCN(CCCC(c2ccc(F)cc2)c2ccc(F)cc2)CC1` [Pimozide] + NC(=O)Nc1cc(-c2cccc(F)c2)sc1C(=O)N[C@H]1CCCNC1 [AZD7762] (partner 0.2 µM), the relative viability (NCI-H522; first compound 0.08 µM) was 0.963, the relative viability (NCI-H522; first compound 0.253 µM) was 0.835 and the relative viability (NCI-H522; first compound 0.8 µM) was 0.857. The relative viability (NCI-H522; first compound 2.53 µM) was 0.77, the relative viability (NCI-H522; first compound 8 µM) was 0.872 and the relative viability (NCI-H1648; first compound 0.08 µM) was 0.568. For the same compound, the relative viability (NCI-H1648; first compound 0.8 µM) was 0.52, the relative viability (NCI-H1648; first compound 2.53 µM) was 0.584 and the relative viability (NCI-H1648; first compound 8 µM) was 0.698. The relative viability (NCI-H2342; first compound 0.08 µM) was 0.524, the relative viability (NCI-H2342; first compound 0.253 µM) was 0.526 and the relative viability (NCI-H2342; first compound 0.8 µM) was 0.465. For the same compound, the relative viability (NCI-H2342; first compound 2.53 µM) was 0.48, the relative viability (NCI-H2342; first compound 8 µM) was 0.492 and the relative viability (NCI-H1703; first compound 0.08 µM) was 0.129. For the same compound, the relative viability (NCI-H1703; first compound 0.253 µM) was 0.109, the relative viability (NCI-H1703; first compound 0.8 µM) was 0.0889 and the relative viability (NCI-H1703; first compound 2.53 µM) was 0.1. For the same compound, the relative viability (NCI-H1703; first compound 8 µM) was 0.122, the relative viability (SW 900; first compound 0.08 µM) was 0.524 and the relative viability (SW 900; first compound 0.253 µM) was 0.599. It also gave a relative viability (SW 900; first compound 2.53 µM) of 0.591 and a relative viability (SW 900; first compound 8 µM) of 0.478.
